Laboratory results published in patent US4835162A (priority 1987, dated 1989).
Where “and” joins values, the source holds several entries; their conditions need not be identical. Identical values can stand only once. Entries after “also recorded” stand apart in the source; their conditions may differ. Like-named read-outs stand apart in the source and are kept apart here.

Columns and labels:
[1] = test system: nicotinic receptors (rat brain membranes)
[2] = test system: nicotinic receptors (rat brain membranes); type: binding
[3] = test system: rats; details: rat, in vivo
[4] = test system: rat liver microsomal system; details: cited from earlier work
[5] = test system: rats; details: rat, in vivo; remark: listed apart in the source
[6] = test system: rats or mice; details: in vivo; cited from earlier work
[7] = biological target: nicotinic receptors (rat brain membranes); details: read-out: 3H-MCC Binding IC50
[8] = biological target: nicotinic receptors (rat brain membranes); type: binding; details: for IC50: read-out: 3H-Nicotine Binding IC50
[9] = biological target: nicotinic receptors (rat brain membranes); type: binding; details: pH 7; read-out: [3H]-MCC IC50
[10] = test system: rats; design: species or system Sprague-Dawley male rats; Blockade of (nicotine-induced prostration) EC50: unit not given here; details: rat, in vivo
[11] = test system: rats; experiment: animal or person; details: Rattus norvegicus, iv, read-out: Antagonistic dose needed to completely block elevation in systolic blood pressure
[12] = test system: rats; details: rat, in vivo; remark: listed apart in the source
[13] = test system: rats; details: rat, in vivo; remark: listed apart in the source
[14] = test system: rats; details: rat, in vivo; remark: listed apart in the source
[15] = test system: rats; experiment: animal or person; details: Rattus norvegicus, ip, 7 min, read-out: % Antagonism (seizures)
[16] = test system: rat brain; details: cited from earlier work
[17] = in vivo; cited from earlier work

SMILES: CN1CCCC1c1cccnc1 (single isomer, unassigned; (-)) [[^3 H]-nicotine, (-)-[^3 H]-nicotine]
- Bmax of higher affinity site, [3H]-nicotine [1]: 5e-15 mol/mg
- Bmax of lower affinity site, [3H]-nicotine [1]: 1e-14 mol/mg and 2e-14 mol/mg
- displaceability of [3H]-nicotine binding by muscarinic antagonists [2]: not displaceable by muscarinic cholinergic antagonists

SMILES: CNC(=O)OCC[N+](C)(C)C [MCC, Methylcarbamylcholine]
- increase in psychotropic potency after quaternization of DMAE methyl carbamate [3]: over 10 fold
- potency relative to (-)-nicotine (prostration) [3]: 1/5
- metabolism [4]: metabolized by a rat liver microsomal system
- Prostration EC50 [5]: 10
- duration of prostration [5]: over 20 min

SMILES: C[N+]1(C)CCCC1c1cccnc1 (centres unmarked) [N'--methyl nicotonium]
- decrease in psychotropic potency with quaternization of nicotine [3]: 50 fold
- potency in producing seizures and mortality, in words [6]: more potent than nicotine in producing seizures and mortality
- IC50 ([2]; pH 7, read-out: [3H]-nicotine IC50): 7 µM
- IC50 ([7]; pH 7.5): 4 µM
- IC50 ([8]; pH 7.5): 7 µM
- IC50 [9]: 4 µM
- Prostration EC50 [5]: 100

SMILES: C[N+](C)(C)CCOC(=O)c1ccccc1 [TMAE benzoate, benzoylcholine]
- Blockade of (nicotine-induced prostration) EC50 [10]: 10
- times as effective as the DMAE ester [10]: 5 times
- ED100 [11]: 1.5 mg/kg
- Seizures [12]: 1/8
- blockade of seizure activity [12]: 78%
- Antagonistic dose needed to completely block elevation in systolic blood pressure [13]: 1.5 ± 0.3 mg/kg
- % Antagonism (protection against nicotine mortality) [14]: 63%
- Mortality [14]: 3/10
- responders at 25 mg/kg [15]: 78%

SMILES: CC(=O)OCC[N+](C)(C)C [[^3 H]-acetylcholine]
- displaceability of [3H]-acetylcholine binding by muscarinic antagonists [16]: displaceable by low concentrations of muscarinic antagonists

SMILES: CN1[C@@H](CC(=O)c2ccccc2)CCC[C@H]1C[C@H](O)c1ccccc1 [α-lobeline, reference compound]
- pharmacologic effects, in words [17]: suppress the desire for tobacco; also recorded: hypertensive action resulting from the stimulation of the carotid body; also recorded: broncio-construction; also recorded: brochoarrythmia
- Blockade of (nicotine-induced prostration) EC50 [10]: 10
- blockade of nicotine-induced prostration / antagonism, in words [10]: most effective antagonist
- ED100 [11]: 0.2 mg/kg
- IC50 [7]: 0.0007 µM
- binding affinity for nicotine receptor, in words [8]: even greater affinity than (-)-nicotine for the receptor; also recorded: very high affinity for brain nicotine receptors
- IC50 [8]: 0.005 µM
- Seizures [12]: 1/8
- protection against seizures, in words [12]: complete protection against seizures
- Antagonistic dose needed to completely block elevation in systolic blood pressure [13]: 0.2 ± 0.05 mg/kg
- % Antagonism (reduction of nicotine mortality) [14]: 75%
- Mortality [14]: 2/10
- responders at 5 mg/kg [15]: 0%
